Test results as given in PubChem BioAssay (NCI).
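Values below derive from 48-hour exposures of cells grown in 96-well plates, with endpoints linearly interpolated between the two concentrations bracketing the appropriate inhibition level. GI50 = concentration required for 50% inhibition of growth. Definition used: TGI = concentration required for complete inhibition of growth.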

How the values were obtained:
Experiment in all cases: NCI tumour cell line growth inhibition, 48 h
[1] = test system: UACC-62 melanoma
[2] = test system: HCT-15 colon
[3] = test system: U251 CNS
[4] = test system: M14 melanoma
[5] = test system: KM12 colon
[6] = test system: UO-31 renal
[7] = test system: SNB-75 CNS
[8] = test system: UACC-257 melanoma
[9] = test system: NCI-H226 lung
[10] = test system: MDA-MB-435
[11] = test system: SR leukemia
[12] = test system: MALME-3M melanoma

Compound	TGI [1] [µM]	TGI [2] [µM]	TGI [3] [µM]	TGI [4] [µM]	TGI [5] [µM]	TGI [6] [µM]	TGI [7] [µM]	TGI [8] [µM]	TGI [9] [µM]	TGI [10] [µM]	TGI [11] [µM]	TGI [12] [µM]	GI50 [1] [µM]	GI50 [12] [µM]	GI50 [2] [µM]	GI50 [4] [µM]	GI50 [6] [µM]	GI50 [7] [µM]	GI50 [10] [µM]	GI50 [11] [µM]
Cc1cc(C)c(NC(=O)/C=C/c2ccccc2)c(C)c1	93.8	> 100	> 100	> 100	> 100	> 100	> 100	> 100	> 100	> 100	> 100	–	–	–	–	–	–	–	–	–
O=C1/C(=C/c2ccc(Cl)cc2)N=C(c2ccccc2)N1/N=C/c1ccccc1O	30.3	> 100	18.6	19.1	33.3	43.4	31	> 100	42.1	> 100	–	18.7	–	–	–	–	–	–	–	–
CCP(=O)(CC)C(Cl)(Cl)C(O)C(Cl)(Cl)Cl (stereo not given)	–	> 100	> 100	> 100	–	> 100	> 100	> 100	> 100	–	> 100	–	–	–	–	–	–	–	–	–
CN1C(=O)CN2C(Cl)(Cl)C2(c2ccccc2)c2cc(Cl)ccc21 (stereo not given)	> 100	> 100	> 100	> 100	> 100	> 100	–	> 100	> 100	–	–	> 100	–	–	–	–	–	–	–	–
NCCCn1c2c(c3ccc([N+](=O)[O-])cc3c1=O)C(=O)c1cc(F)ccc1-2	0.165	0.647	–	0.104	–	0.19	0.268	–	–	0.923	0.0205	0.161	0.036	0.0275	0.0595	0.0297	0.0324	0.023	0.0762	< 0.01
